Data published in ChEMBL document CHEMBL3862038, “When Does Chemical Elaboration Induce a Ligand To Change Its Binding Mode?” (J Med Chem, 2017).

Target: Heat shock protein HSP90 (Homo sapiens, UniProt P07900+P08238)
Experiment: Inhibition of HSP90 (unknown origin)

SMILES: COc1cccc(C(=O)NC2CCC3CCC(C2)N3c2ccc(C(=O)NCc3ccccc3)cc2)c1C (stereo unspecified)
- Kd: 800 µM
